Measurements published in the METLIN SMRT retention time set (Domingo-Almenara et al. 2019).

Experiment: gradient 5% acetonitrile 3 min, to 50% in 2 min, to 85% in 15 min, held 3 min, 100 µL/min
Conditions: column: Zorbax Extend-C18 2.1 x 50 mm; eluents: water / acetonitrile, 0.1% formic acid
Summary of the method: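 Retention time was recorded from adduct peaks, which were picked computationally and each inspected manually. Pure standards ran in mixtures of ~100 molecules on HPLC coupled to a quadrupole time-of-flight mass spectrometer, in positive and negative ionization mode, through a Zorbax Extend-C18 column (2.1 × 50 mm, 1.8 μm) at 100 μL/min. Eluents were water and acetonitrile, each with 0.1% formic acid.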

SMILES	RP-LC retention time
O=c1c(=O)n(-c2ccccc2)ccn1Cc1nc(-c2ccc3c(c2)OCO3)no1	773 s
COc1cccc(NS(=O)(=O)c2cc3n(c2)CCCNC3=O)c1	632 s
CCCCOc1ccc(-c2ccc(=O)n(Cc3nc(-c4ccc(F)cc4)no3)n2)cc1	1290 s
COc1ccc(-c2c(C)noc2NC(C)=O)cc1S(=O)(=O)Nc1cc(F)ccc1F	748 s
NS(=O)(=O)c1ccc2nc(NC(=O)COc3ccc(Cl)cc3)sc2c1	766 s
O=C(NC1CCCCC1)C1CCN(c2ncccc2-c2nc(-c3ccc(Cl)cc3)no2)CC1	1230 s
Cc1cc(F)ccc1NC(=O)c1cc(C2CC2)on1	936 s
Cc1ccc(-c2nc(-c3ccc4ncn(C(C)C)c4c3)no2)cc1	857 s
CCSc1nnc(-c2nn(C)c3c2CN(S(=O)(=O)c2cccc(Cl)c2)CC3)n1CC	989 s
COCc1nnc(NC(=O)c2ccccc2OCc2nc(-c3ccccc3)no2)s1	1080 s
Cc1ccc(C(CC(=O)NCCN2CCOCC2)N2Cc3ccccc3C2=O)cc1 (stereo unspecified)	642 s
COc1ccc(CSc2nnc3c(S(=O)(=O)N4CCCCC4)cccn23)cc1	861 s
Cc1cc2c(c(=O)n(-c3ccccc3)c(=O)n2CC(=O)Nc2cccc(C(C)C)c2)n1C	975 s
Cc1ccc(CNC(=O)c2nc3cccnc3n(CC(C)C)c2=O)cc1	1010 s
Cc1nc(-c2ccc(-c3noc(COc4ccc(F)cc4)n3)cc2)cs1	1160 s
Cc1ccc(Cn2nc(C(=O)NCc3ccco3)ccc2=O)cc1	788 s
CCOC(=O)c1ccccc1NC(=O)CSc1ccc(-c2ccccn2)nn1	906 s

Other lines, results leading:

RP-LC retention time	SMILES
683 s	COc1cc(C(=O)N2CCC(c3nc4cccnc4n3C)C2)ccc1C (stereo unspecified)
642 s	O=C(NCCN1CCOCC1)C1CCN(S(=O)(=O)c2ccc(-c3noc(C4CC4)n3)cc2)CC1
737 s	COc1ccc(OC)c(CNC(=O)C2CCCN(c3nnc4ccc(Cl)cn34)C2)c1 (stereo unspecified)
649 s	CS(=O)(=O)N1CCCN(C(=O)Nc2ccccc2)CC1
614 s	CCCCN(C)C(=O)C1CCN(c2cncnc2N2CCOCC2)CC1
883 s	CC1CCN(C(=O)C2c3ccccc3CCN2C(=O)C(C)C)CC1 (stereo unspecified)
952 s	O=C(Nc1cnc(N2CCCCC2)nc1)c1cc(F)ccc1F
737 s	Cc1cc(-c2ccc(S(=O)(=O)N3CCC(C(=O)NC4CCCC4)CC3)o2)n[nH]1
576 s	COc1ccc2c(c1)CC(C(=O)NCCCN1CCN(C3CCCCC3)CC1)CO2 (stereo unspecified)
660 s	CCn1cc(S(=O)(=O)N2CCC(N3CC4(CCCCC4)C3c3ccccc3)CC2)cn1 (stereo unspecified)
1010 s	COC(=O)c1ccc(NC(=O)Cn2cccc(-c3nc(-c4ccc(OC)c(OC)c4)no3)c2=O)cc1
735 s	COC(=O)c1c(C)[nH]c(C(=O)N2CCCC(C(=O)NCc3ccc(OC)cc3)C2)c1C (stereo unspecified)
655 s	CN(C(=O)Cn1nc2n(c1=O)CCCCC2)c1ccccc1
819 s	Cc1cccc(S(=O)(=O)N2CCC(c3nc(C(=O)N4CCOCC4)c(C)o3)CC2)c1
861 s	COc1cccc(NC(=O)N2CCC(n3c(C(F)(F)F)nc4cccnc43)CC2)c1
605 s	CCN(CC)c1ccc(C(=O)N2CCC(c3cc(N)on3)CC2)cc1
722 s	COC(=O)c1ccc(C(=O)OC)c(NC(=O)N2CCC(CN3CC(C)CC(C)C3)CC2)c1 (stereo unspecified)
623 s	COc1ccc2[nH]cc(CN3CCC([C@H]4[C@@H](OC)C(=O)N4C(C)C)CC3)c2c1
872 s	O=C(NCc1ccco1)C1CCCN(c2ncccc2-c2noc(C3CCC3)n2)C1 (stereo unspecified)
